PubChem BioAssay AID330 (DTP/NCI, 2004)
Where “and” joins values, the source holds several entries; their conditions need not be identical. Equal entries are not always repeated. Toxic doses and inconclusive results are not listed. The calls were made as follows: active = survival T/C of 150% or more; inactive = T/C below 125% in these data.

System: P388 leukemia ip, CD2F1 mice, survival T/C
Experiment: NCI In Vivo Anticancer Drug Screen. Data for tumor model P388 Leukemia (intraperitoneal) in CD2F1 (CDF1) mice
Details: endpoint: median survival time, higher = longer survival
In short: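 Mice carrying the transplanted tumor received test compound or vehicle. Survival was recorded in each group, and the value is the treated-group measurement divided by that of the vehicle-treated control group.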

Measured: T/C

NC(C/[N+]([O-])=N/O)C(=O)O (configuration not stated)
active: dose: 27.0 mg/kg/injection, schedule: Q01DX009 (ip), vehicle: alkali diluted with saline 161 % of control | dose: 30.0 mg/kg/injection, schedule: Q01DX005 (ip), vehicle: alkali diluted with saline 161 % of control | dose: 37.5 mg/kg/injection, schedule: Q01DX009 (ip), vehicle: alkali diluted with saline 161 % of control and 162 % of control | dose: 40.0 mg/kg/injection, schedule: Q01DX005 (ip), vehicle: alkali diluted with saline 150 % of control | dose: 40.0 mg/kg/injection, schedule: Q01DX009 (ip), vehicle: alkali diluted with saline 165 % of control | dose: 45.0 mg/kg/injection, schedule: Q01DX009 (ip), vehicle: alkali diluted with saline 152 % of control and 166 % of control | dose: 60.0 mg/kg/injection, schedule: Q01DX005 (ip), vehicle: alkali diluted with saline 185 % of control | dose: 62.5 mg/kg/injection, schedule: Q01DX009 (ip), vehicle: saline 150 % of control | dose: 62.5 mg/kg/injection, schedule: Q01DX009 (ip), vehicle: water 163 % of control | dose: 75.0 mg/kg/injection, schedule: Q01DX009 (ip), vehicle: alkali diluted with water 166 % of control | dose: 80.0 mg/kg/injection, schedule: Q01DX005 (ip), vehicle: alkali diluted with saline 182 % of control | dose: 108.0 mg/kg/injection, schedule: Q04DX003 (ip), vehicle: alkali diluted with saline 161 % of control | dose: 112.5 mg/kg/injection, schedule: Q04DX003 (ip), vehicle: alkali diluted with saline 150 % of control | dose: 125.0 mg/kg/injection, schedule: Q01DX005 (ip), vehicle: saline with Tween-80 157 % of control | dose: 125.0 mg/kg/injection, schedule: Q01DX009 (ip), vehicle: saline 154 % of control | dose: 180.0 mg/kg/injection, schedule: Q04DX003 (ip), vehicle: alkali diluted with saline 166 % of control | dose: 200.0 mg/kg/injection, schedule: Q04DX003 (ip), vehicle: alkali diluted with water 155 % of control | dose: 225.0 mg/kg/injection, schedule: Q04DX003 (ip), vehicle: alkali diluted with saline 178 % of control | dose: 300.0 mg/kg/injection, schedule: Q04DX003 (ip), vehicle: alkali diluted with saline 175 % of control | dose: 500.0 mg/kg/injection, schedule: Q04DX003 (ip), vehicle: alkali diluted with saline 198 % of control
inactive: dose: 8.78 mg/kg/injection, schedule: Q01DX010 (ip), vehicle: alkali diluted with saline 119 % of control | dose: 9.38 mg/kg/injection, schedule: Q01DX009 (ip), vehicle: alkali diluted with saline 120 % of control | dose: 13.2 mg/kg/injection, schedule: Q01DX010 (ip), vehicle: alkali diluted with saline 124 % of control | dose: 15.6 mg/kg/injection, schedule: Q01DX005 (ip), vehicle: saline with Tween-80 124 % of control | dose: 15.6 mg/kg/injection, schedule: Q01DX005 (iv), vehicle: saline with Tween-80 107 % of control | dose: 31.3 mg/kg/injection, schedule: Q01DX005 (iv), vehicle: saline with Tween-80 103 % of control | dose: 62.5 mg/kg/injection, schedule: Q01DX005 (iv), vehicle: saline with Tween-80 111 % of control | dose: 66.7 mg/kg/injection, schedule: Q01DX009 (ip), vehicle: alkali diluted with saline 107 % of control | dose: 80.0 mg/kg/injection, schedule: Q01DX009 (ip), vehicle: alkali diluted with saline 99 % of control | dose: 100.0 mg/kg/injection, schedule: Q01DX010 (ip), vehicle: alkali diluted with saline 92 % of control | dose: 120.0 mg/kg/injection, schedule: Q01DX005 (ip), vehicle: alkali diluted with saline 70 % of control | dose: 125.0 mg/kg/injection, schedule: Q01DX005 (iv), vehicle: saline with Tween-80 107 % of control | dose: 125.0 mg/kg/injection, schedule: Q01DX009 (ip), vehicle: alkali diluted with saline 66 % of control and 86 % of control | dose: 150.0 mg/kg/injection, schedule: Q01DX009 (ip), vehicle: alkali diluted with water 96 % of control | dose: 450.0 mg/kg/injection, schedule: Q04DX003 (ip), vehicle: alkali diluted with saline 115 % of control

CC(C(N)C(=O)NC(C(=O)O)C1OC(n2ccc(=O)[nH]c2=O)C(O)C1O)C(O)c1ccc(O)cn1 (configuration not stated)
inactive: dose: 25.0 mg/kg/injection, schedule: Q01DX005 (ip), vehicle: saline 100 % of control | dose: 50.0 mg/kg/injection, schedule: Q01DX005 (ip), vehicle: saline 103 % of control | dose: 100.0 mg/kg/injection, schedule: Q01DX005 (ip), vehicle: saline 100 % of control

CCOC(=O)/N=[N+](\[O-])c1ccccc1
inactive: dose: 0.2 mg/kg/injection, schedule: Q01DX009 (ip), vehicle: saline with Tween-80 103 % of control | dose: 0.39 mg/kg/injection, schedule: Q01DX009 (ip), vehicle: saline with Tween-80 103 % of control | dose: 0.78 mg/kg/injection, schedule: Q01DX009 (ip), vehicle: saline with Tween-80 106 % of control and 95 % of control | dose: 1.56 mg/kg/injection, schedule: Q01DX009 (ip), vehicle: saline with Tween-80 109 % of control and 95 % of control | dose: 3.12 mg/kg/injection, schedule: Q01DX009 (ip), vehicle: saline with Tween-80 103 % of control and 123 % of control | dose: 3.12 mg/kg/injection, schedule: Q04DX003 (ip), vehicle: saline with Tween-80 112 % of control and 115 % of control | dose: 6.25 mg/kg/injection, schedule: Q01DX009 (ip), vehicle: saline with Tween-80 107 % of control and 115 % of control | dose: 6.25 mg/kg/injection, schedule: Q04DX003 (ip), vehicle: saline with Tween-80 99 % of control and 110 % of control | dose: 12.5 mg/kg/injection, schedule: Q01DX009 (ip), vehicle: saline with Tween-80 115 % of control | dose: 12.5 mg/kg/injection, schedule: Q04DX003 (ip), vehicle: saline with Tween-80 112 % of control and 117 % of control and 123 % of control | dose: 25.0 mg/kg/injection, schedule: Q04DX003 (ip), vehicle: saline with Tween-80 110 % of control

O=C(Nc1ccccc1)Oc1cccc(/C=N/S(=O)(=O)c2cccc([N+](=O)[O-])c2)c1
inactive: dose: 50.0 mg/kg/injection, schedule: Q01DX009 (ip), vehicle: saline with Tween-80 93 % of control | dose: 100.0 mg/kg/injection, schedule: Q01DX009 (ip), vehicle: saline with Tween-80 97 % of control | dose: 200.0 mg/kg/injection, schedule: Q01DX009 (ip), vehicle: saline with Tween-80 98 % of control

NC(Cc1ccc2c(c1)OCO2)c1ccc2c(c1)OCO2 (configuration not stated)
inactive: dose: 50.0 mg/kg/injection, schedule: Q01DX005 (ip), vehicle: Klucel (hydroxypropylcellulose) (HPC) 101 % of control | dose: 100.0 mg/kg/injection, schedule: Q01DX005 (ip), vehicle: Klucel (hydroxypropylcellulose) (HPC) 99 % of control | dose: 200.0 mg/kg/injection, schedule: Q01DX005 (ip), vehicle: Klucel (hydroxypropylcellulose) (HPC) 101 % of control

Clc1ccc(C2=CSC3=NCCN23)cc1
inactive: dose: 12.5 mg/kg/injection, schedule: Q01DX009 (ip), vehicle: Klucel (hydroxypropylcellulose) (HPC) 111 % of control | dose: 25.0 mg/kg/injection, schedule: Q01DX009 (ip), vehicle: Klucel (hydroxypropylcellulose) (HPC) 110 % of control

COC(=O)C1=CN(c2ccccc2)C(=O)C1
inactive: dose: 100.0 mg/kg/injection, schedule: Q04DX003 (ip), vehicle: Klucel (hydroxypropylcellulose) (HPC) 118 % of control | dose: 200.0 mg/kg/injection, schedule: Q04DX003 (ip), vehicle: Klucel (hydroxypropylcellulose) (HPC) 114 % of control | dose: 400.0 mg/kg/injection, schedule: Q04DX003 (ip), vehicle: Klucel (hydroxypropylcellulose) (HPC) 108 % of control

CCCC[C@H]1C(=O)O[C@H](C)[C@H](NC(=O)c2cccc(NC=O)c2O)C(=O)O[C@@H](C)[C@@H]1OC(=O)CC(C)C
inactive: dose: 0.12 mg/kg/injection, schedule: Q01DX009 (ip), vehicle: Klucel (hydroxypropylcellulose) (HPC) 105 % of control | dose: 0.25 mg/kg/injection, schedule: Q01DX009 (ip), vehicle: Klucel (hydroxypropylcellulose) (HPC) 105 % of control | dose: 0.5 mg/kg/injection, schedule: Q01DX009 (ip), vehicle: Klucel (hydroxypropylcellulose) (HPC) 109 % of control | dose: 1.0 mg/kg/injection, schedule: Q01DX009 (ip), vehicle: Klucel (hydroxypropylcellulose) (HPC) 119 % of control

COc1ccc2c(C[N+](C)(C)CCC#N)cc(=O)oc2c1
inactive: dose: 50.0 mg/kg/injection, schedule: Q04DX002 (ip), vehicle: saline 100 % of control | dose: 100.0 mg/kg/injection, schedule: Q04DX002 (ip), vehicle: saline 100 % of control | dose: 200.0 mg/kg/injection, schedule: Q04DX002 (ip), vehicle: saline 104 % of control

C/C(=N/NC(N)=S)c1cn[nH]c1C
inactive: dose: 15.0 mg/kg/injection, schedule: Q01DX005 (ip), vehicle: Klucel (hydroxypropylcellulose) (HPC) 102 % of control | dose: 30.0 mg/kg/injection, schedule: Q01DX005 (ip), vehicle: Klucel (hydroxypropylcellulose) (HPC) 102 % of control | dose: 60.0 mg/kg/injection, schedule: Q01DX005 (ip), vehicle: Klucel (hydroxypropylcellulose) (HPC) 114 % of control

CC(C)(C)[NH2+][B-](F)(F)F
inactive: dose: 6.25 mg/kg/injection, schedule: Q01DX005 (ip), vehicle: saline 94 % of control | dose: 12.5 mg/kg/injection, schedule: Q01DX005 (ip), vehicle: saline 103 % of control
